The conditions of data set [1]: in vivo; cited from earlier work.
The conditions of data set [2]: cited from earlier work.
For data set [3], the system named is lymphomas, particularly Hodgkin's disease. The settings on record: cited from earlier work.
Data set [4] relates to K562 erytiroleukemia cells. The settings on record: Yan et al., 1995; cited from earlier work.
The subject of data set [5] is OVCAR-3 (MDR ovarian carcinoma). The settings on record: clinically relevant concentrations (Rogan et al., 1984); cited from earlier work.
In data set [6] the test system is glycosylceramide synthesis in MCF-7-AdrR cells. In words: Glycosylceramide levels in MDR cells following drug treatment, [3H]serine 48 h. The settings on record: read-out: diminution in glycosylceramide formation, adriamycin alone. It counts as cell-based.
Data set [7] relates to MCF-7-AdrR cells. In words: Cell proliferation (MTS) assay: adriamycin toxicity and chemosensitization. The source says: FIG. 15A and FIG. 15B. […] FIG. 15B: Glycosylceramide levels in MDR Cells following drug treatment. […] In order to avoid differences in [^3 H]glycosylceramide values which account for cell death, the same amount of total radioactive lipid from each sample was applied to TLC separation.
FIG. 16A and FIG. 16B. […] FIG. 16A: Effect of PPMP on cellular glycosylceramide levels. […] [^3 H]Glycosylceramide was quantitated as described in the legend to FIG. 9.
Vehicle (acetone, ethanol) was always added to control (minus drug) wells. The cytotoxic activity of a drug was determined using the Promega CellTiter 96™ AQueous MTS cell proliferation assay kit. Each experimental point was performed in six replicates. MTS/PMS solution (20 μl/well) was aliquoted into all wells, and the cells were incubated for 2-3 h, or until an O.D. of 0.9-1.0 was obtained as a highest reading. Thereafter, absorbence at 490 nm was recorded using an ELISA plate reader (Molecular Devices, San Diego, Calif.).

Data set [8] deals with chronic myelogenous leukemia. The settings on record: previously untreated chronic myelogenous leukemia; cited from earlier work.
The subject of the next data set is P388 and U937 cells. The note with it: Bose et al., 1995; cited from earlier work.
In another data set the test system is MCF-7-wt cells. In words: Metabolism of sphinganine, MCF-7-wt cells (TLC charring). It is filed as cell-based. The settings on record: 5.0 μM sphinganine:BSA, FIG. 4. As for the experimental part:
(§1) FIG. 4. Metabolism of sphinganine by MCF-7-wt and MCF-7-AdrR cells. Cells, in 100×20 mm culture dishes, were incubated with 5.0 μM sphinganine:BSA (prepared at a 1:1 molar ratio) for the times indicated. Lipids were extracted, a 100 μg lipid aliquot of each sample was resolved by TLC in solvent system II, and the TLC was charred as described in Example I. The data shown are representative of two independent experiments which gave similar results.
(§2) Lipid Mass Analysis--Cell lipids were analyzed by TLC separation and charring of the chromatogram. Briefly, total cellular lipids were extracted by the method of Bligh and Dyer (1959), and equal aliquots (by weight) from each sample were spotted on TLC plates. The plates were developed using solvent system I or II (see below), air-dried for 1 h and sprayed using a 35% solution of sulfuric acid in water. The lipids were charred by heating in an oven at 180° C. for 30 min, and resulting black bands were visualized and photographed. Bands can be further quantitated by photodensitometric scanning.

In data set [9] the test system is MCF-7-AdrR cells. The experiment in a line: Metabolism of sphinganine, MCF-7-AdrR cells (TLC charring). It counts as cell-based. The note with it: 5.0 μM sphinganine:BSA, FIG. 4. The method, then:
as §1, §2

The test system of a further data set is certain animal tumors. The note with it: in vivo; cited from earlier work.
In data set [10] the test system is MCF-7-doxorubicin resistant cells. The note with it: Sachs et al., 1995; cited from earlier work.
The subject of the next data set is PKC. The note with it: Sachs et al., 1995; cited from earlier work.

As usually defined, the Cmax is the peak of the concentration-time curve.

“Also recorded” adds a separate entry of the source. Counter-ions that a name gives are not always drawn. Like-named read-outs stand apart in the source and are kept apart here.

Take `CC[C@]1(O)C[C@@H]2CN(CCc3c([nH]c4ccccc34)[C@@](C(=O)OC)(c3cc4c(cc3OC)N(C)[C@H]3[C@@](O)(C(=O)OC)[C@H](OC(C)=O)[C@]5(CC)C=CCN6CC[C@]43[C@@H]65)C2)C1` [vinblastine]: the “tolerability / toxicity (in words)” value in data set [1] is “painful irritation and ulceration”. Further, in data set [2] (in vivo, iv), the “half-life of disappearance from plasma, first” value is “approximately 1 hours” and the “half-life of disappearance from plasma, second” value is roughly 20 h. In [2] (in vivo), the maximum concentration (Cmax) is roughly 400 µM, the “distribution in blood cells (in words)” value is “extensively concentrated in platelets” and the “plasma protein binding (in words)” value is “bind to plasma proteins”. In addition, the significant improvement in [3] is on record as 50 to 90 % of cases.
Take `Cc1cn([C@H]2C[C@H](N=[N+]=[N-])[C@@H](CO)O2)c(=O)[nH]c1=O` [3'-azidothymidine]: the “sphingoglycolipid metabolism (in words)” value in data set [4] is recorded as “altered sphingoglycolipid metabolism”.
Take `COc1cccc2c1C(=O)c1c(O)c3c(c(O)c1C2=O)C[C@@](O)(C(=O)CO)C[C@@H]3O[C@H]1C[C@H](N)[C@H](O)[C@H](C)O1` [adriamycin, 5,12-Naphthacenedione, (8s-cis)-10-[(3-amino-2,3,6-trideoxy-a-L-lyxo-hexopyranosyl)oxy]-7,8,9,10-tetrahydro-6,8,11-trihydroxy-8-(hydroxyacetyl)-1-methoxy-hydrochloride]: in data set [2] (in vivo, iv), the elimination half-life entry is recorded as “about 30 hr”. In addition, the “excreted into the urine” value in data set [2] (in vivo) was “a few percent”. Further, the “absorption (in words)” value in [2] (oral or unspecified) was “absorbed poorly”. The “resistance of OVCAR-3 to the drug (in words)” value in data set [5] is “resistant”. In addition, the inhibition at 2.5 µM in [6] came out at 17%. Also, the “cell death, adriamycin in the presence of tamoxifen” value in the data set with MCF-7-AdrR cells [7] (5 μM adriamycin + 5.0 μM tamoxifen, 72 h, FIG. 15A) turned out to be 60%. Further, in the data set on MCF-7-AdrR cells [7] (Homo sapiens, 72 h, read-out: cell death, adriamycin alone (maximal cytotoxic effect)), the cytotoxicity at 5 µM stood at 28%. In the data set with MCF-7-AdrR cells [7] (MCF-7-AdrR, alone), the “effect of the substance alone on cell survival (in words)” value is “minor effect; also recorded: largely without influence”.
As to `CS(=O)(=O)OCCCCOS(C)(=O)=O` [Busulfan, 1,4-butanediol dimethanesulfonate], the hematologic remission result in data set [8] is listed as “Approximately 90 % of adults”.
On to `COc1cccc2c1C(=O)c1c(O)c3c(c(O)c1C2=O)C[C@@](O)(C(C)=O)C[C@@H]3O[C@H]1C[C@H](N)[C@H](O)[C@H](C)O1` [daunorubicin, 5,12-Naphthacenedione, (8S-cis)-8-acetyl-10-[(3-amino-2,3,6-trideoxy-a-L-lyxo-hexanopyranosyl)oxy]-7,8,9,10-tetrahydro-6,8,11-trihydroxy-10-methoxy-, hydrochloride], for which, in data set [2] (in vivo, iv), the distribution half-life was 0.75 h, the elimination half-life entry is reported as “about 19 hr” and the “secreted into the bile” value was roughly 40%. Further, the “absorption (in words)” value in data set [2] (in vivo, po) is “poor”. For the same compound, the “ceramide elevation (in words)” value in the data set on P388 and U937 cells is listed as “stimulates ceramide elevation”.
Regarding `CCCCCCCCCCCCCCC[C@@H](O)[C@@H](N)CO` [sphinganine], the “synthesis of lipid X, MCF-7-wt (in words)” value in the data set with MCF-7-wt cells is “synthesis of lipid X increased”. The “glycosylceramide (lipid-1 and -2) synthesis/mass on sphinganine supplement, MCF-7-AdrR (in words)” value in the data set with MCF-7-AdrR cells [9] was “accelerated synthesis; also recorded: strikingly more pronounced”.
`N[C@H](Cc1ccc(N(CCCl)CCCl)cc1)C(=O)O` [medphalan]: the “activity against certain animal tumors relative to L-isomer (in words)” value in the data set on certain animal tumors was “less active”.
With `CCCCCCCCCCCCCCC[C@H](O)[C@@H](N)CO` [safingol], the “reversal of MDR (in words)” value in data set [10] was “reversal of MDR”. In the data set with PKC, the “inhibition of PKC activity (in words)” value is “inhibition of PKC activity”.

These data come from patent US5885786A, “Methods for screening of substances for inhibition of multidrug resistance” (priority 1996, dated 1999).
